# Assay results published in patent publication US20060094003A1, “Acetylcholine-dependent current as a novel ionic target for atrial fibrillation” (priority 2004, published 2006).
# Experiments:
# [1] = tested on: multicellular canine atrial preparations; assay: Action potential recording with standard microelectrodes in multicellular canine atrial preparations (LA and PV); details: for APD90 / APD25 / APD50: after tertiapin-Q (200 nM per table title); for APD90: atropine present, 2 Hz
# Protocol: Adult mongrel dogs of either sex (weighing about 20-35 kg) were anaesthetized with pentobarbital (30 mg kg^−1 I.V.) and artificially ventilated with room air. Hearts and adjacent lung tissue were relatively quickly excised through a left lateral thoracotomy and immersed in oxygenated Tyrode solution (composition detailed hereinbelow) at room temperature. Removal of the heart and lungs produced circulatory arrest, resulting in relatively effective and relatively humane killing. A left atrial (LA) preparation with the PVs intact was perfused via the left circumflex coronary artery, and subjected to either standard fine-tipped microelectrode recording of action potentials (APs) or cardiomyocyte isolation with collagenase-containing solutions, as previously described (Ehrlich et al. 2003). Six dogs were subjected to atrial tachycardia-induced remodeling induced by 1 week of atrial pacing at about 400 beats min^−1 after ablation of the AV node, as described in Li et al. 1999. Animal care and handling procedures followed the guidelines of the Canadian Council on Animal Care.
# To isolate LA and PV cardiomyocytes, the proximal circumflex artery was cannulated and the distal ends of PV myocardial sleeves (approximately 1-1.5 cm from the PV-LA junction) were marked with silk thread prior to subsequent enzyme perfusion with collagenase (100 U ml^−1, Worthington, type II), in order to facilitate localization of PV sleeves after enzymatic digestion. […] With this method, PVs were relatively well-perfused and single cardiomyocytes could be isolated from all veins. Cardiomyocytes obtained from PVs were morphologically similar to LA cardiomyocytes isolated from the LA free wall in the same dogs. All comparisons were based on PV and LA cardiomyocytes isolated from each dog on each experimental day. After isolation, cells were stored at 4° C. and studied on the same day. For standard microelectrode experiments, intact tissue preparations including the LA and adjacent PVs were mounted in a chamber and perfused via the circumflex artery with oxygenated Krebs solution at 36±0.5° C. (see for example Kneller et al. 2002).
# Fine-tipped microelectrodes (resistance 15-20 M when filled with 3 M KCl) coupled to a high input-impedance amplifier were used to record APs as described in Kneller et al. 2002.
# Tyrode solution contained (mM): NaCl 136, KCl 5.4, MgCl2 1, CaCl2 1, NaH2PO4 0.33, Hepes 5 and dextrose 10 (pH 7.35 with NaOH). The cell-storage solution contained (mM): KCl 20, KH2PO4 10, dextrose 10, mannitol 40, L-glutamic acid 70, β-OH-butyric acid 10, taurine 20, EGTA 10 and 0.1% bovine serum albumin (pH 7.3, KOH). Nifedipine (5 μM) was used to suppress L-type Ca^2+ current (ICa) in all experiments. 4-Aminopyridine (4-AP, 2 mM) was added to suppress transient outward current (Ito). […] Na+ current (INa) contamination was avoided by using a HP of −40 mV for recording of hyperpolarization-induced currents and by substitution of equimolar Tris-HCl for external NaCl for tail-current recordings. When different external K^+ concentrations were applied, the osmolarity was kept constant by proportionate reduction of NaCl content in the solution. The standard internal solution contained (mM): potassium aspartate 110, KCl 20, MgCl2 1, MgATP 5, GTP (lithium salt) 0.1, Hepes 10, sodium phosphocreatine 5 and EGTA 5.0 (pH 7.3 with KOH). In experiments with K+-free internal solution, potassium aspartate was replaced by equimolar caesium aspartate and KCl by CsCl and pH was set to 7.3 with CsOH. For standard-microelectrode experiments, a solution containing (mM): NaCl 120, KCl 4, KH2PO4 1.2, MgSO4 1.2, NaHCO3 25, CaCl2 1.25 and dextrose 5 (95% O2-5% CO2, pH 7.4) was used to perfuse the tissue.
# FIGS. 5E and F show representative APs before and after 100 nM tertiapin-Q in LA and PV.
# IK1 = details: at concentrations of 8 to 30 nM; cited from earlier work
substance,measurement,setting,value
tertiapin-Q,effect on AP duration in LA and PV (in words),"[1]; 100 nM tertiapin-Q, 200 nM atropine",significantly prolonged
same,APD90,"[1]; LA, control 202.6 ± 2.6",242.7 ± 6.2 ms
same,APD25,"[1]; LA, control 78.1 ± 2.8",84.7 ± 4.0 ms
same,APD50,"[1]; LA, control 130.2 ± 4.0",146.8 ± 3.2 ms
same,APD90,"[1]; PV, control 190.4 ± 4.3",234.2 ± 9.9 ms
same,APD25,"[1]; PV, control 71.3 ± 3.4",86.1 ± 5.0 ms
same,APD50,"[1]; PV, control 104.0 ± 3.8",126.8 ± 6.9 ms
same,effect on IK1 (in words),IK1,no effect
